Where two headings read alike, the source gives them in different places.
Target: T1, human cannabinoid CB2 receptor (Homo sapiens, UniProt P34972)
T1 construct: expressed in transfected cells; host or cells: Saccharomyces cerevisiae strain MMY23 (expresses a chimeric Gpa1/human Galpha-i3 G-protein alpha subunit)
Assay: Cannabinoid CB2 receptor agonist activity, yeast reporter assay
Assay type: cell-based
Settings: for Emax: read-out: efficacy (Emax) at the cloned human cannabinoid CB2 receptor
From the text: Yeast (Saccharomyces cerevisiae) cells expressing the human cannabinoid CB2 receptor were generated by integration of an expression cassette into the ura3 chromosomal locus of yeast strain MMY23. This cassette consisted of DNA sequence encoding the human CB2 receptor flanked by the yeast GPD promoter to the 5′ end of CB2 and a yeast transcriptional terminator sequence to the 3′ end of CB2. MMY23 expresses a yeast/mammalian chimeric G-protein alpha subunit in which the C-terminal 5 amino acids of Gpa1 are replaced with the C-terminal 5 amino acids of human Gαi3 (as described in Brown et al. (2000), Yeast 16:11-22).
Agonists were prepared as 10 mM stocks in DMSO. […] Agonist solutions in DMSO (1% final assay volume) were transferred into black, clear bottom, microtitre plates from NUNC (96- or 384-well). […] Fluorescence was plotted against compound concentration and iteratively curve fitted using a four parameter fit to generate a concentration effect value.

T1 sequence (P34972 whole entry): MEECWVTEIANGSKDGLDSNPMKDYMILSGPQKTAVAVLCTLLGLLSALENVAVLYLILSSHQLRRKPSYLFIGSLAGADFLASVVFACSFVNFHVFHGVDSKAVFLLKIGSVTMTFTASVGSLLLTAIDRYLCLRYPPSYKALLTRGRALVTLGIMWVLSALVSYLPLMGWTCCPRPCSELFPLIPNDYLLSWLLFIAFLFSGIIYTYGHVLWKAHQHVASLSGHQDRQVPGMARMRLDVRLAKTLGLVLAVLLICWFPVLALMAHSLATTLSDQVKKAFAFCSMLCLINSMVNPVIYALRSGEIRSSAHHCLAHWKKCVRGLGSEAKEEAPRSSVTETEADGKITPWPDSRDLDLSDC

N#Cc1ccc(CNC(=O)c2cnc(Nc3cc(Cl)ccc3Cl)nc2C(F)(F)F)cc1 [Example 67, 2-(2,5-Dichloro-phenylamino)-4-trifluoromethyl-pyrimidine-5-carboxylic acid N-(4-cyano-benzyl)amide]
EC50: > 1 µM | Emax: < 50%

C[C@@H](NC(=O)c1cnc(Nc2cccc(Cl)c2)nc1C(F)(F)F)c1ccccc1 [Example 108, 2-(3-Chloro-phenylamino)-4-trifluoromethyl-pyrimidine-5-carboxylic acid ((R)-1-phenyl-ethyl)-amide]
EC50: > 1 µM | Emax: < 50%

O=C(NCc1ccccc1)c1cnc(Nc2ccc(Cl)cc2Cl)nc1C(F)(F)F [Example 8, 2-(2,4-Dichlorophenylamino)-4-trifluoromethyloyrimidine-5-carboxyllc acid benzyl-amide]
EC50: 0.02 to 1 µM | Emax: > 50%

COc1ccc(CNC(=O)c2cnc(Nc3cccc(Cl)c3)nc2C(F)(F)F)cc1 [Example 4, 2-(3-Chlorophenylamino)-4-trifluoromethylpyrimidine-5-carboxylic acid 4-methoxybenzyl-amide]
EC50: 0.02 to 1 µM | Emax: > 50%

O=C(NCc1ccncc1)c1cnc(Nc2ccc(Cl)cc2Cl)nc1C(F)(F)F [Example 17, 2-(2,4-Dichlorophenylamino)-4-trifluoromethylpyrimidine-5-carboxylic acid (pyridin-4-ylmethyl)amide]
EC50: 0.02 to 1 µM | Emax: > 50%

O=C(NCc1ccnc(F)c1)c1cnc(Nc2c(Cl)cccc2Cl)nc1C(F)(F)F [Example 93, 2-(2,6-Dichloro-phenylamino)-4-trifluoromethyl-pyrimidine-5-carboxylic acid (2-fluoro-pyridin-4-ylmethyl)-amide]
EC50: 0.02 to 1 µM | Emax: > 50%

O=C(NCc1ccc(F)cc1)c1cnc(Nc2cccc(Cl)c2)nc1C(F)(F)F [Example 5, 2-(3-Chlorophenylamino)-4-trifluoromethylpyrimidine-5-carboxylic acid 4 fluorobenzyl-amide]
EC50 (yeast (Saccharomyces cerevisiae) cells expressing human CB2, read-out: EC50 at the cloned human cannabinoid CB2 receptor): 0.02 to 1 µM

O=C(NCc1ccncc1)c1cnc(Nc2cc(Cl)ccc2Cl)nc1C(F)(F)F [Example 19, 2-(2,5-Dichlorophenylamino)trifluoromethylpyrimidine-5-carboxylic acid (pyridin-4-ylmethyl)amide]
EC50: 0.02 to 1 µM | Emax: > 50%

O=C(NCc1ccccc1)c1cnc(Nc2cccc(Cl)c2)nc1C(F)(F)F [Example 1, 2-(3-Chlorophenylamino)-4-trifluoromethylpyrimidine-5-carboxylic acid benzyl-amide]
EC50: 0.02 to 1 µM | Emax: > 50%

O=C(NCc1ccccc1)c1cnc(Nc2cc(Cl)ccc2Cl)nc1C(F)(F)F [Example 56, 2-(2,5-Dichloro-phenylamino)-4-trifluoromethyl-pyrimidine-5-carboxylic acid N-benzylamide]
EC50: > 1 µM | Emax: < 50%

O=C(NCc1ccnc(F)c1)c1cnc(Nc2cc(Cl)ccc2Cl)nc1C(F)(F)F [Example 90, 2-(2,5-Dichloro-phenylamino)-4-trifluoromethyl-pyrimidine-5-carboxylic acid (2-fluoro-pyridin-4-ylmethyl)-amide]
EC50: 0.02 to 1 µM | Emax: > 50%

O=C(NCc1ccc(F)cc1)c1cnc(Nc2cccc(F)c2)nc1C(F)(F)F [Example 23, 2-(3-Fluorophenylamino)-4-trifluoromethylpyrimidine-5-carboxylic acid 4-fluorobenzyl-amide]
EC50: 0.02 to 1 µM | Emax: > 50%

O=C(NCc1ccc(OC(F)(F)F)cc1)c1cnc(Nc2cccc(Cl)c2)nc1C(F)(F)F [Example 62, 2-(3-Chloro-phenylamino)-4-trifluoromethyl-pyrimidine-5-carboxylic acid N-(4-trifluoromethoxybenzyl)amide]
EC50: > 1 µM | Emax: < 50%

COc1cccc(CNC(=O)c2cnc(Nc3cccc(Cl)c3)nc2C(F)(F)F)c1 [Example 50, 2-(3-Chloro-phenylamino)-4-trifluoromethyl-pyrimidine-5-carboxylic acid N-(3-methoxybenzyl)amide]
EC50: > 1 µM | Emax: < 50%

N#Cc1ccc(CNC(=O)c2cnc(Nc3cccc(Cl)c3Cl)nc2C(F)(F)F)cc1 [Example 65, 2-(2,3-Dichloro-phenylamino)-4-trifluoromethyl-pyrimidine-5-carboxylic acid N-(4-cyano-benzyl)amide]
EC50: > 1 µM | Emax: < 50%

CN(Cc1ccccc1)C(=O)c1cnc(Nc2ccc(C#N)cc2)nc1C(F)(F)F [Example 49, 2-(4-Cyano-phenylamino)-4-trifluoromethyl-pyrimidine-5-carboxylic acid N-benzyl-N-methyl-amide]
EC50: > 1 µM | Emax: < 50%

COc1ccccc1Nc1ncc(C(=O)NCc2ccccc2)c(C(F)(F)F)n1 [Example 15, 2-(2-Methoxyphenylamino)-4-trifluoromethylpyrimidine-5-carboxylic acid benzyl-amide]
EC50: 0.02 to 1 µM | Emax: > 50%

N#Cc1ccc(Nc2ncc(C(=O)NCc3ccccc3)c(C(F)(F)F)n2)cc1 [Example 27, 2-(4-Cyano-phenylamino)-4-trifluoromethyl-pyrimidine-5-carboxylic acid benzylamide]
EC50: 0.02 to 1 µM | Emax: > 50%

NC(=O)c1ccc(CNC(=O)c2cnc(Nc3cccc(Cl)c3)nc2C(F)(F)F)cc1 [Example 105, 2-(3-Chloro-phenylamino)-4-trifluoromethyl-pyrimidine-5-carboxylic acid 4-carbarnoyl-benzylamide]
EC50: > 1 µM | Emax: < 50%

CN(Cc1ccccc1)C(=O)c1cnc(Nc2ccc(C(C)(C)C)cc2)nc1C(F)(F)F [2-(4-tert-butyl-phenylamino)-4-trifluoromethyl-pyrimidine-5-carboxylic acid benzyl-methyl-amide]
activity in the CB2 assay (in words) (CB2 assay described herein): inactive

CC(C)(C)OC(=O)Nc1ccc(CNC(=O)c2cnc(Nc3cccc(Cl)c3)nc2C(F)(F)F)cc1 [Example 107]
EC50: > 1 µM | Emax: < 50%

O=C(NCc1ccncc1)c1cnc(Nc2ccc(Cl)c(Cl)c2)nc1C(F)(F)F [Example 18]
EC50: 0.02 to 1 µM | Emax: > 50%

O=C(NCc1ccc(F)cc1)c1cnc(Nc2cc(Cl)cc(Cl)c2)nc1C(F)(F)F [Example 25, 2-(3,5-Dichlorophenylamino)trifluoromethylpyrimidine-5-carboxylic acid 4-fluorobenzyl-amide]
EC50: 0.02 to 1 µM | Emax: > 50%

O=C(NCc1ccncn1)c1cnc(Nc2cccc(F)c2)nc1C(F)(F)F [Example 76, 2-(3-Fluoro-phenylamino)-4-trifluoromethyl-pyrimidine-5-carboxylic acid N-(pyrimidin-4-ylmethyl)-amide]
EC50: > 1 µM | Emax: < 50%

O=C(NCc1ccc(F)c(Cl)c1)c1cnc(Nc2cccc(Cl)c2)nc1C(F)(F)F [Example 109, 2-(3-Chloro-phenylamino)-4-trifluoromethyl-pyrimidine-5-carboxylic acid 3-chloro,4-fluoro-benzylamide]
EC50: > 1 µM | Emax: < 50%

O=C(O)c1cc(Cl)cc(Nc2ncc(C(=O)NCc3ccc(F)cc3)c(C(F)(F)F)n2)c1 [Example 113, 3-Chloro-5-[(4-fluoro-benzylcarbamoyl)-trifluoromethyl-pyrimidin-2-ylarnino]-benzoic acid]
EC50: > 1 µM | Emax: < 50%

O=C(NCc1ccncc1)c1cnc(Nc2cccc(Cl)c2Cl)nc1C(F)(F)F [Example 16]
EC50: 0.02 to 1 µM | Emax: > 50%

CC(C)(C)c1ccc(CNC(=O)c2cnc(Nc3cccc(Cl)c3)nc2C(F)(F)F)cc1 [Example 106, 2-(3-Chloro-phenylamino)-4-trifluoromethyl-pyrimidine-5-carboxylic acid 4-tert-butyl-benzylamide]
EC50: > 1 µM | Emax: < 50%

N#Cc1ccc(CNC(=O)c2cnc(Nc3ccc(Cl)c(Cl)c3)nc2C(F)(F)F)cc1 [Example 68, 2-(3,4-Dichloro-phenylamino)-4-trifluoromethyl-pyrimidine-5-carboxylic acid N-(4-cyano-benzyl)amide]
EC50: > 1 µM | Emax: < 50%

O=C(NCc1ccc(F)c(C(F)(F)F)c1)c1cnc(Nc2cccc(Cl)c2)nc1C(F)(F)F [Example 75, 2-(3-Chloro-phenylamino)-4-trifluoromethyl-pyrimidine-5-carboxylic acid N-(4-fluoro-3-trifluoromethyl-benzyl)amide]
EC50: > 1 µM | Emax: < 50%

O=C(NCc1ccc(F)cc1)c1cnc(Nc2ccc(Cl)c(Cl)c2)nc1C(F)(F)F [Example 102, 2-(3,4-Dichloro-phenylamino)-4-trifluoromethyl-pyrimidine-5-carboxylic acid 4-fluoro-benzylamide]
EC50: 0.02 to 1 µM | Emax: > 50%

O=C(NCc1ccccc1)c1cnc(Nc2cccc(F)c2)nc1C(F)(F)F [Example 12, 2-(3-Fluorophenylamino)-4-trifluoromethylpyrimidine-5-carboxylic acid benzyl-amide]
EC50: 0.02 to 1 µM | Emax: > 50%

O=C(NCc1ccc(F)cc1)c1cnc(Nc2cccc(Cl)c2Cl)nc1C(F)(F)F [Example 99, 2-(2,3-Dichloro-phenylamino)-4-trifluoromethyl-pyrimidine-5-carboxylic acid 4-fluoro-benzylamide]
EC50: 0.02 to 1 µM | Emax: > 50%

O=C(NCc1cc(F)cc(F)c1)c1cnc(Nc2cccc(Cl)c2)nc1C(F)(F)F [Example 61, 2-(3-Chloro-phenylamino)-4-trifluoromethyl-pyrimidine-5-carboxylic acid N-(3,5-difluoro-benzyl)amide]
EC50: > 1 µM | Emax: < 50%
